According to patent US10344060B2 (priority 2013, dated 2019):
Where “and” joins values, the source holds several entries; their conditions need not be identical. Equal entries are not always repeated. Entries after “also recorded” stand apart in the source; their conditions may differ. Where two headings read alike, the source gives them in different places.

Experiments:
[1] = rat plasma, 37° C., incubation time 0 hr (normalization point)
hNav1.4 [2] = biological target: T1, hNav1.4 (Homo sapiens, UniProt P35499); assay: cell-based; format: cell-based
hNav1.7 [3] = biological target: T2, hNav1.7 (Homo sapiens, UniProt Q15858); assay: cell-based; format: cell-based
hNav1.3 = hNav1.3 (Homo sapiens, UniProt Q9NY46); assay: cell-based; format: cell-based
hNav1.8 [4] = biological target: hNav1.8 (Homo sapiens, UniProt Q9Y5Y9); assay: cell-based; format: cell-based
hNav1.8 [5] = assay: cell-based; format: cell-based, human; conditions: hNav1.8 / hNav1.7
hNav1.5 [6] = biological target: T3, hNav1.5 (Homo sapiens, UniProt Q14524); assay: cell-based; format: cell-based
[7] = system: TTX-sensitive Nav channels in mouse DRG neuron; conditions: for 1.x/1.7: mTTX-S / hNav1.7
hNav1.5 [8] = biological target: T3, hNav1.5; assay: cell-based; conditions: IonWorks Quattro; Table 6; read-out: IC50 (μM) Nav1.5
[9] = system: TTX-resistant Nav channels in mouse DRG neuron
hNav1.7 [10] = biological target: T2, hNav1.7; assay: cell-based; conditions: ratio of IonWorks Quattro IC50 values, Nav1.4 over Nav1.7
[11] = human plasma, 37° C., incubation 0 hr (normalisation point)
[12] = cyno plasma, 37° C., incubation 0 hr (normalisation point)
[13] = mouse plasma, 37° C., incubation 0 hr (normalisation point)
hNav1.7 [14] = biological target: T2, hNav1.7; assay: cell-based; format: cell-based; conditions: Table 15; read-out: PX hNav1.7 Tonic IC50
human Nav1.1 = human Nav1.1 (Homo sapiens, UniProt P35498); assay: cell-based; format: cell-based
[15] = system: TTX-sensitive Nav channels in Sprague Dawley rat DRG neuron
hNav1.4 [16] = biological target: T1, hNav1.4; assay: cell-based; format: cell-based; conditions: Table 12; ratio of PX tonic IC50 values
in vivo = conditions: male, CD-1, mouse, sc, 5 mg/kg
hNav1.5 [17] = biological target: T3, hNav1.5; assay: cell-based; conditions: Table 12; ratio of PX tonic IC50 values
[18] = male CD-1 mice, 5 mg/kg s.c.
human Nav1.2 = human Nav1.2 (Homo sapiens, UniProt Q99250); assay: cell-based; format: cell-based
human Nav1.6 = human Nav1.6 (Homo sapiens, UniProt Q9UQD0); assay: cell-based; format: cell-based
hNav1.6 = hNav1.6 (Homo sapiens, UniProt Q9UQD0); assay: cell-based; format: cell-based
[19] = manual WCPC, ~20% inactivation, read-out: IC50 of hNav1.5 inhibition

Chain of human Nav1.2 (Q99250 whole entry): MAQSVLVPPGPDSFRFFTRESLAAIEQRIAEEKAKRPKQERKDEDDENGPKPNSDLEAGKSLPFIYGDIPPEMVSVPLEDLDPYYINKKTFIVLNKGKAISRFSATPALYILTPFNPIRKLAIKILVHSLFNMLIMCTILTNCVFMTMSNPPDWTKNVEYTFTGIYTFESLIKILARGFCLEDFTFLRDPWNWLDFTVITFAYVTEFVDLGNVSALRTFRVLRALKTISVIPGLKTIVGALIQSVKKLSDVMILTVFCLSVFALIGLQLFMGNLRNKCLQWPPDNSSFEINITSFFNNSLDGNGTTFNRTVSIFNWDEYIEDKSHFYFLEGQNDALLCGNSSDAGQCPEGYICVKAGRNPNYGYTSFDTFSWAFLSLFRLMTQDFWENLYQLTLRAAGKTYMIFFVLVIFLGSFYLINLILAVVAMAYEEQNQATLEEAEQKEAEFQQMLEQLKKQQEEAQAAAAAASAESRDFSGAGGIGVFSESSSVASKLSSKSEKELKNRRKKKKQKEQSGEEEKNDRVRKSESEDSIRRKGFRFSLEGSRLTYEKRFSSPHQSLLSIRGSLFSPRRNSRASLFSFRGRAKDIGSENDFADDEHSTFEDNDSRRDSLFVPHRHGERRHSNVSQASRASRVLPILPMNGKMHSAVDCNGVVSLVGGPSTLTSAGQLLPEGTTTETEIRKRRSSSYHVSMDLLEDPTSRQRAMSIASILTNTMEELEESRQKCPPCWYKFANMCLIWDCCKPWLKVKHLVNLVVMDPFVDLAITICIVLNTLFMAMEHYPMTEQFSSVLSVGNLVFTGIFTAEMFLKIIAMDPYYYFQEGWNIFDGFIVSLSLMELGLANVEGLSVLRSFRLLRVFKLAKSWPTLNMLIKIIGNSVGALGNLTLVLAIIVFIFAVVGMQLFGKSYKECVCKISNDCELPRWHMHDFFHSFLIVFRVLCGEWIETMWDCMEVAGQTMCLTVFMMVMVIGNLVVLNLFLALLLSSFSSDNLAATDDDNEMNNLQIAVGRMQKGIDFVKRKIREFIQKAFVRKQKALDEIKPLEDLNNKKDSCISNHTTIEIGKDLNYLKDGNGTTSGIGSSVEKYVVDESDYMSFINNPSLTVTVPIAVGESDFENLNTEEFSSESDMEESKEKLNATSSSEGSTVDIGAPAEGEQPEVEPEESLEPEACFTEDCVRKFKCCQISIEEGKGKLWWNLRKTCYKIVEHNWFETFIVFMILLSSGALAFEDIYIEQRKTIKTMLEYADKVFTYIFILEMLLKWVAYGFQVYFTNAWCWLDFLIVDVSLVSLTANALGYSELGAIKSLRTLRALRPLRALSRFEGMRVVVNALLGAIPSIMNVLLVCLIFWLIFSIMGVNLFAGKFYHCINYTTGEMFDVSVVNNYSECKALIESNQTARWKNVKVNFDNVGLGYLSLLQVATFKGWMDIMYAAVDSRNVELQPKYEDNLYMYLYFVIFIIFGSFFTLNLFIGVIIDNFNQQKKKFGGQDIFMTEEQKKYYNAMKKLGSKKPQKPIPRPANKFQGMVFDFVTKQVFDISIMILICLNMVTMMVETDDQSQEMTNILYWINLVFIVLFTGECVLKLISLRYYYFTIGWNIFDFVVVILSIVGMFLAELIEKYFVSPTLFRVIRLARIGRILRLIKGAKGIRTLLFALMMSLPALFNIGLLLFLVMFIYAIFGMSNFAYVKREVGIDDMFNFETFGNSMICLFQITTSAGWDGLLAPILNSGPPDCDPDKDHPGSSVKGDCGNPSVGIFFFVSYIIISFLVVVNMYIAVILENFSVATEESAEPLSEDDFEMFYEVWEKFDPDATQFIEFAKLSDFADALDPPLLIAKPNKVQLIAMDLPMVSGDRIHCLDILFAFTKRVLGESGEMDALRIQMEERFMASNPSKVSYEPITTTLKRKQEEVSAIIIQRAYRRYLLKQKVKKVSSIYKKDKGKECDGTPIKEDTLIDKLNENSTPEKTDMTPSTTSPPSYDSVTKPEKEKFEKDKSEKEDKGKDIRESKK
T1 sequence (P35499 whole entry): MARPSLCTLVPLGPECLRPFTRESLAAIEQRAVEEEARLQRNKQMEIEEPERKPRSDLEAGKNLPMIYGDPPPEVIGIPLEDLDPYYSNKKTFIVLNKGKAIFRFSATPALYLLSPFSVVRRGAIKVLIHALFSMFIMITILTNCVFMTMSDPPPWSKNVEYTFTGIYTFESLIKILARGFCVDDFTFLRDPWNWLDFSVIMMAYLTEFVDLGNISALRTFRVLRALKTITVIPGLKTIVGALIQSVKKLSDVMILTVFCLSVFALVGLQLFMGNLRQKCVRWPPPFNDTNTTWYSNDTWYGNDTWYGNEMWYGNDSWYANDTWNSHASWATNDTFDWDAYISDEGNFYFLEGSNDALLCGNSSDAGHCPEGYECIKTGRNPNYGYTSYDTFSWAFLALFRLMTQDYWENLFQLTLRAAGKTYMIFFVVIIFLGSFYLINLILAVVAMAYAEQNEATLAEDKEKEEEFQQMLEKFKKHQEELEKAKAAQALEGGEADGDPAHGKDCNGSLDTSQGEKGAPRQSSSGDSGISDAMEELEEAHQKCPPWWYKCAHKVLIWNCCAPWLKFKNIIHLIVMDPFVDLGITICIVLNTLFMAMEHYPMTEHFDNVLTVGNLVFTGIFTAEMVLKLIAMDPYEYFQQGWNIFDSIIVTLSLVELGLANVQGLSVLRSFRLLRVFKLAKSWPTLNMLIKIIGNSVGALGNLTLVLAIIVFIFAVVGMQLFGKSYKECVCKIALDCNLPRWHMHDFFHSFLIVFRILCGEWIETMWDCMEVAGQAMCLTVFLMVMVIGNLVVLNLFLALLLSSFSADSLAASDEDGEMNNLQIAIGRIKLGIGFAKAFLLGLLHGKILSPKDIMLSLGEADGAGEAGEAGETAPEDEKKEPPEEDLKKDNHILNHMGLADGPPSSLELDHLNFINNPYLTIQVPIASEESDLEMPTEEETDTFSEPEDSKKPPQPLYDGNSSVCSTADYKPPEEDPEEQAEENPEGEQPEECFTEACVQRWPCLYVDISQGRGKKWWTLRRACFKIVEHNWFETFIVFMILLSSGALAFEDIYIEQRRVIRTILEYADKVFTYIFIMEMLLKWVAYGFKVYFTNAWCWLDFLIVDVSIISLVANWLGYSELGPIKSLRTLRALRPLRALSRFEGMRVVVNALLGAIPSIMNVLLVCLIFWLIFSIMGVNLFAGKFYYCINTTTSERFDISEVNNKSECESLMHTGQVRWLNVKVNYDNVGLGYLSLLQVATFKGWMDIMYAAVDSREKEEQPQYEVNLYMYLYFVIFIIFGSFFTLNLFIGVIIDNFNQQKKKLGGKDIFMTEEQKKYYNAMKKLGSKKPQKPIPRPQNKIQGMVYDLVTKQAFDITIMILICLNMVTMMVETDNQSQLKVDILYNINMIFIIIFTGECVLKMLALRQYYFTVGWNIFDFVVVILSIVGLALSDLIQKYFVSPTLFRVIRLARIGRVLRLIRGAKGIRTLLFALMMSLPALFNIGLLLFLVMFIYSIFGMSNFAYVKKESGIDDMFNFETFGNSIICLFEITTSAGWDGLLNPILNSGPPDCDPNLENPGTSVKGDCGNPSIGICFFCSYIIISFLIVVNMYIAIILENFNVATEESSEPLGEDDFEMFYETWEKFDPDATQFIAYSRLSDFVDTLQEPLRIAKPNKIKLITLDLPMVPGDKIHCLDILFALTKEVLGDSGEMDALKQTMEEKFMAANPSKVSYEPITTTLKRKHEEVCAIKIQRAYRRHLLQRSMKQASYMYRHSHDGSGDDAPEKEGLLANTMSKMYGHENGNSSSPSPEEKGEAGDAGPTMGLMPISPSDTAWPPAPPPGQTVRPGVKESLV

CC[C@H](C)[C@H](NC(=O)[C@H](CCCCN)NC(=O)[C@H](CCCNC(=N)N)NC(=O)[C@@H]1CSSC[C@@H]2NC(=O)[C@H](C)NC(=O)[C@H](CCCNC(=N)N)NC(=O)[C@H](CCCCN)NC(=O)[C@H](CO)NC(=O)[C@H](CC(=O)O)NC(=O)[C@@H]3CSSC[C@H](NC(=O)[C@H](CCC(=O)O)NC(=O)[C@H](CC(C)C)NC(=O)CNC(=O)[C@H](CCC(=O)O)NC(=O)[C@H](CSSC[C@H](NC(=O)[C@@H](N)Cc4ccc(O)cc4)C(=O)N[C@@H](CCC(N)=O)C(=O)N[C@@H](CCCCN)C(=O)N[C@@H](Cc4c[nH]c5ccccc45)C(=O)N[C@@H](CCSC)C(=O)N[C@@H](Cc4c[nH]c5ccccc45)C(=O)N[C@@H]([C@@H](C)O)C(=O)N3)NC2=O)C(=O)N[C@@H](CCCCN)C(=O)N[C@@H](CC(C)C)C(=O)N[C@@H](Cc2c[nH]c3ccccc23)C(=O)N1)C(=O)N[C@@H](Cc1c[nH]c2ccccc12)C(N)=O [SEQ ID NO: 112, [Glu20,Trp29]JzTx-V(1-29)]
% Peptide Remaining [1]: 100%

CC[C@H](C)[C@H](NC(=O)[C@@H](NC(=O)[C@H](CCCCN)NC(=O)[C@H](CCCNC(=N)N)NC(=O)[C@@H]1CSSC[C@@H]2NC(=O)[C@H](C)NC(=O)[C@H](CCCNC(=N)N)NC(=O)[C@H](CCCCN)NC(=O)[C@H](CO)NC(=O)[C@H](CC(=O)O)NC(=O)[C@@H]3CSSC[C@H](NC(=O)[C@H](CCCNC(=N)N)NC(=O)[C@H](CC(C)C)NC(=O)CNC(=O)[C@H](CCC(=O)O)NC(=O)[C@H](CSSC[C@H](NC(=O)[C@@H](N)Cc4ccc(O)cc4)C(=O)N[C@@H](CCC(N)=O)C(=O)N[C@@H](CCCCN)C(=O)N[C@@H](Cc4c[nH]c5ccccc45)C(=O)N[C@@H](CCSC)C(=O)N[C@@H](Cc4c[nH]c5ccccc45)C(=O)N[C@@H]([C@@H](C)O)C(=O)N3)NC2=O)C(=O)N[C@@H](CCCCN)C(=O)N[C@@H](CC(C)C)C(=O)N[C@@H](Cc2c[nH]c3ccccc23)C(=O)N1)[C@@H](C)CC)C(N)=O [compound 2]
block of hNav1.4 current, in words (hNav1.4 [2]; 100 nM, held at −83 mV): completely blocked Nav1.4 current; also recorded: complete inhibition
inhibition of hNav1.7 current, in words (hNav1.7 [3]; 1 nM as printed): complete inhibition
block of hNav1.7 current, in words (hNav1.7 [3]; 1 μM): blocked all Nav1.7 current
block of hNav1.3 current, in words (hNav1.3; 300 nM, held at −80 mV): completely blocked Nav1.3 current; also recorded: complete inhibition
block of TTX-resistant hNav1.8 current (hNav1.8 [4]): approximately 50%
inhibition of hNav1.8 current, in words (hNav1.8 [4]): only partial inhibition
1.x/1.7 (hNav1.8 [5]; fully non-inactivated): 5724
1.x/1.7 (hNav1.8 [5]; partially inactivated): 3282
block of hNav1.5 current, in words (hNav1.5 [6]; 3 μM, held at −85 mV): blocked most Nav1.5 current; also recorded: nearly complete inhibition
IC50 (hNav1.5 [6]; [19]): 426 nM
1.x/1.7 ([7]; fully non-inactivated): 530
block of TTX-sensitive Nav current, in words ([7]; increasing concentrations, time course): blocked nearly all TTX-sensitive Nav current
1.x/1.7 ([7]; partially inactivated): 111
IC50 (hNav1.5 [8]): 3 µM and 3.5 µM
IC50 [9]: > 1000 nM
IC50 of TTX-resistant sodium channel current inhibition [9]: not measurable

CC[C@H](C)[C@H](NC(=O)[C@H](CO)NC(=O)[C@H](CCCCN)NC(=O)[C@H](CCCNC(=N)N)NC(=O)[C@@H]1CSSC[C@@H]2NC(=O)[C@H](C)NC(=O)[C@H](CCCNC(=N)N)NC(=O)[C@H](CCCCN)NC(=O)[C@H](CO)NC(=O)[C@H](CC(=O)O)NC(=O)[C@@H]3CSSC[C@H](NC(=O)[C@H](CCC(=O)O)NC(=O)[C@H](CC(C)C)NC(=O)CNC(=O)[C@H](CCC(=O)O)NC(=O)[C@H](CSSC[C@H](NC(=O)[C@@H](N)Cc4ccc(O)cc4)C(=O)N[C@@H](CCC(N)=O)C(=O)N[C@@H](CCCCN)C(=O)N[C@@H](Cc4c[nH]c5ccccc45)C(=O)N[C@@H](CCSC)C(=O)N[C@@H](Cc4c[nH]c5ccccc45)C(=O)N[C@@H]([C@@H](C)O)C(=O)N3)NC2=O)C(=O)N[C@@H](CCCCN)C(=O)N[C@@H](CC(C)C)C(=O)N[C@@H](Cc2c[nH]c3ccccc23)C(=O)N1)C(N)=O [compound 138]
Nav1.4/Nav1.7 (hNav1.7 [10]): 62 and 34
% Peptide Remaining [11]: 100%
% Peptide Remaining [12]: 100%
% Peptide Remaining [13]: 100%

C#CC[C@H](N)C(=O)N[C@@H](Cc1ccc(O)cc1)C(=O)N[C@H]1CSSC[C@@H]2NC(=O)[C@@H]3CSSC[C@@H](C(=O)N[C@@H](CCCNC(=N)N)C(=O)N[C@@H](CCCCN)C(=O)N[C@@H](CCC(=O)O)C(=O)N[C@H](C(N)=O)[C@@H](C)CC)NC(=O)[C@H](Cc4c[nH]c5ccccc45)NC(=O)[C@H](CC(C)C)NC(=O)[C@H](CCCCN)NC(=O)[C@H](CSSC[C@H](NC(=O)[C@H]([C@@H](C)O)NC(=O)[C@H](Cc4c[nH]c5ccccc45)NC(=O)[C@H](CCCC)NC(=O)[C@H](Cc4c[nH]c5ccccc45)NC(=O)[C@H](CCCCN)NC(=O)[C@H](CCC(N)=O)NC1=O)C(=O)N[C@@H](CC(=O)O)C(=O)N[C@@H](CO)C(=O)N[C@@H](CCCCN)C(=O)N[C@@H](CCCNC(=N)N)C(=O)N[C@@H](C)C(=O)N3)NC(=O)[C@H](CCCNC(=N)N)NC(=O)[C@H](CC(C)C)NC(=O)CNC(=O)[C@H](CCC(=O)O)NC2=O [compound 328]
IC50 (hNav1.7 [14]): 0.548 nM
block of hNav1.1 current (human Nav1.1; 1000 nM, held at −70 mV): approximately 95%
IC50 (human Nav1.1; manual patch clamp, ~20% inactivation, read-out: IC50 hNav1.1): 27.2 nM
1.x/1.7 (human Nav1.1; partially inactivated, hNav1.1 / hNav1.7): 44
IC50 [15]: 30.7 nM
block of TTX-sensitive Nav current ([15]; 300 nM, Sprague Dawley rat DRG neuron held at −78 mV): approximately 85%
1.x/1.7 ([15]; partially inactivated, rTTX-S / hNav1.7): 50
block of hNav1.4 current (hNav1.4 [2]; 1000 nM, held at −78 mV): approximately 90%
IC50 (hNav1.4 [2]; manual WCPC, partially inactivated state, read-out: IC50 of hNav1.4 inhibition): 74.6 nM
1.x/1.7 (hNav1.4 [2]; partially inactivated, hNav1.4 / hNav1.7): 120
Nav1.4/Nav1.7 (hNav1.4 [16]): 253
Cmax (in vivo): 2200 nM
half-life (in vivo): ~4.5 h
Nav1.5/Nav1.7 (hNav1.5 [17]): 5854
mean Cmax over the mouse DRG Nav1.7 IC50 [18]: 196 fold
block of hNav1.7 current (hNav1.7 [3]; 100 nM): approximately 95%
potency against hNav1.7, in words (hNav1.7 [3]; manual WCPC): sub-nanomolar potency
selectivity for hNav1.7 against other human VGSCs (hNav1.7 [3]; manual WCPC, hNav1.1-hNav1.8): > 30 fold
IC50 (hNav1.7 [3]; read-out: IC50 of hNav1.7 inhibition): 0.62 nM
block of hNav1.3 current (hNav1.3; 1000 nM, held at −68 mV): approximately 90%
IC50 (hNav1.3; manual WCPC, ~20% inactivation, read-out: IC50 of hNav1.3 inhibition): 52.5 nM
1.x/1.7 (hNav1.3; partially inactivated, hNav1.3 / hNav1.7): 85
IC50 (hNav1.8 [4]): > 1000 nM
block of TTX-resistant hNav1.8 current (hNav1.8 [4]; 1000 nM): approximately 30%
IC50 (hNav1.8 [4]; WCPC, partially inactivated, hNav1.8, n=2, read-out: Mean IC50): > 1000 nM
1.x/1.7 (hNav1.8 [5]; partially inactivated): >1613
block of hNav1.2 current, in words (human Nav1.2; 1000 nM, held at −65 mV): blocks the majority of Nav current
IC50 (human Nav1.2; manual patch clamp, ~20% inactivation, read-out: IC50 hNav1.2): 44.4 nM
1.x/1.7 (human Nav1.2; partially inactivated, hNav1.2 / hNav1.7): 72
block of hNav1.5 current (hNav1.5 [6]; 1000 nM, held at −77 mV): less than 10%
IC50 (hNav1.5 [6]; WCPC, partially inactivated, hNav1.5, n=2, read-out: Mean IC50): > 1000 nM
IC50 (hNav1.5 [6]; [19]): > 1000 nM
1.x/1.7 (hNav1.5 [6]; partially inactivated, hNav1.5 / hNav1.7): >1613
IC50 [7]: 11.2 nM
block of TTX-sensitive Nav current ([7]; 300 nM, C57 Black 6 mouse DRG neuron): approximately 90%
1.x/1.7 ([7]; partially inactivated): 18
block of hNav1.6 current, in words (human Nav1.6; 1000 nM, held at −67 mV): blocks the majority of Nav current
IC50 (human Nav1.6; manual patch clamp, ~20% inactivation, read-out: IC50 hNav1.6): 19.4 nM
1.x/1.7 (human Nav1.6; partially inactivated, hNav1.6 / hNav1.7): 31
selectivity for Nav1.7 over Nav1.6 (hNav1.6; PatchXpress): 334 fold
Nav1.6/Nav1.7 (hNav1.6; Table 15, ratio of PX tonic IC50 values): 334
IC50 (hNav1.6; Table 15, read-out: PX hNav1.6 Tonic IC50): 183 nM
